The text below walks through data of US11453666B2, “Autotaxin inhibitory compounds” (Cancer Research Technology Limited, priority 2015, dated 2022).

Molecules are shown by their SMILES. pIC50: −log10 of the molar value. Where two headings read alike, the source gives them in different places.

For this assay, the target named is human recombinant ATX (Homo sapiens, UniProt Q13822). In words: Autotaxin (ATX) activity Quanta Red assay. Type of assay: biochemical. Here is the method: The reaction was stopped after 2 hours with a 20 μL addition of Quanta Red Stop solution (1:20 dilution in distilled water). The above-described mixture with DMSO alone was used as a positive control whereas that with DMSO alone without ATX was taken as a negative control.
Fluorescence was determined in a BMG Labtech Pherastar plus plate reader ([…]). Data were analysed using Excel fit software. IC50 values were determined in duplicate.

The mark [1] stands for this setting: read-out: Activity (ATX activity, Quanta Red assay; IC50).
[2] abbreviates: Table 2: additional compounds tested for ATX activity (Quanta Red Assay), read-out: Activity.
Setting [3] is: human recombinant ATX 0.8 μg/mL, 2 hours at room temperature, IC50 determined in duplicate, read-out: Activity (ATX activity, Quanta Red assay; IC50).

As to `O=C(CCc1nc2ccncc2n1Cc1ccc(OC(F)(F)F)cc1)NCc1ccc(F)cc1` [Example 133, N-(4-Fluoro-benzyl)-3-[3-(4-trifluoromethoxy-benzyl)-3H-imidazo[4,5-c]pyridin-2-yl]-propionamide], the pIC50 under setting [1] is 7.28. On to `O=C(CCc1nc2cccnc2n1Cc1ccc(F)c(F)c1)NCC1CCCCC1` [Example 71, N-Cyclohexylmethyl-3-[3-(3,4-difluoro-benzyl)-3H-imidazo[4,5-b]pyridin-2-yl]-propionamide], for which the pIC50 under setting [1] was 6.61. Consider `O=C(CCc1nc2cccnc2n1Cc1ccc(OC(F)(F)F)cc1)NC[C@@H](O)c1ccccc1` [Example 36, N-((S)-2-Hydroxy-2-phenyl-ethyl)-3-[3-(4-trifluoromethoxy-benzyl)-3H-imidazo[4,5-b]pyridin-2-yl]-propionamide], for which the pIC50 under setting [1] was 8.15. Same read-out and setting: under `O=C(CCc1nc2cccnc2n1Cc1ccc(F)c(F)c1)NC(CO)c1ccc(Cl)cc1` (stereo not drawn) [Example 35, N-[1-(4-Chloro-phenyl)-2-hydroxy-ethyl]-3-[3-(3,4-difluoro-benzyl)-3H-imidazo[4,5-b]pyridin-2-yl]-propionamide] stands 8.15; under `O=C(CCc1nc2cccnc2n1Cc1ccc(OC(F)(F)F)cc1)NCC1CCCCC1` [Example 42, N-Cyclohexylmethyl-3-[3-(4-trifluoromethoxy-benzyl)-3H-imidazo[4,5-b]pyridin-2-yl]-propionamide], 7.96.

In the case of `O=C(CCc1nc2cccnc2n1Cc1ccccc1)NCc1cccc(Cl)c1` [Example 232, 3-(3-Benzyl-3H-imidazo[4,5-b]pyridin-2-yl)-N-(3-chloro-benzyl)-propionamide], the pIC50 under setting [2] is 6.22.

Turning to `C[C@H](NC(=O)CCc1nc2cccnc2n1Cc1ccc(F)c(F)c1)c1ccccn1` [Example 72, 3-[3-(3,4-Difluoro-benzyl)-3H-imidazo[4,5-b]pyridin-2-yl]-N-((S)-1-pyridin-2-yl-ethyl)-propionamide], the pIC50 under setting [1] was 6.61. In the case of `COc1cc(OC(F)(F)F)ccc1CNC(=O)CCc1nc2cccnc2n1Cc1ccc(F)c(F)c1` [Example 74, 3-[3-(3,4-Difluoro-benzyl)-3H-imidazo[4,5-b]pyridin-2-yl]-N-(2-methoxy-4-trifluoromethoxy-benzyl)-propionamide], the pIC50 under setting [1] was 6.47. On to `O=C(CCc1nc2cccnc2n1Cc1ccccc1)NCc1cccs1` [Example 3, 3-(3-Benzyl-3H-imidazo[4,5-b]pyridin-2-yl)-N-thiophen-2-ylmethyl-propionamide], for which the pIC50 under setting [3] was 6.07. With `O=C(CCc1nc2cccnc2n1Cc1cccs1)NCc1ccc(F)cc1` [Example 224, N-(4-Fluoro-benzyl)-3-(3-thiophen-2-ylmethyl-3H-imidazo[4,5-b]pyridin-2-yl)-propionamide], under setting [2], the pIC50 is 6.16.

For the compound `C[C@H](NC(=O)C[S+]([O-])c1nc2cccnc2n1Cc1ccc(OC(F)(F)F)cc1)c1ccc(F)cc1` (single isomer, unassigned) [Example 148], the pIC50 under setting [3] was 8.00. In the case of `Cc1cnc(NC(=O)CCc2nc3cccnc3n2Cc2ccc(OC(F)(F)F)cc2)s1` [Example 81, N-(5-Methyl-thiazol-2-yl)-3-[3-(4-trifluoromethoxy-benzyl)-3H-imidazo[4,5-b]pyridin-2-yl]-propionamide], the pIC50 under setting [1] was 5.83.

Consider `CCC[C@H](NC(=O)CCc1nc2cccnc2n1Cc1ccc(OC)cc1)c1ccccc1` [Example 99], for which the pIC50 under setting [1] is 7.32. Consider `COc1ccc(Cn2c(CCC(=O)NCc3ccc(Cl)cc3)nc3cccnc32)cc1` [Example 218, N-(4-Chloro-benzyl)-3-[3-(4-methoxy-benzyl)-3H-imidazo[4,5-b]pyridin-2-yl]-propionamide], for which the pIC50 under setting [2] was 7.64. As for `O=C(CCc1nc2cccnc2n1Cc1ccc(OC(F)(F)F)cc1)N[C@@H]1c2ccccc2C[C@@H]1O` [Example 8, N-((1R,2S)-2-Hydroxy-indan-1-yl)-3-[3-(4-trifluoromethoxy-benzyl)-3H-imidazo[4,5-b]pyridin-2-yl]-propionamide], the pIC50 under setting [1] is 9.00. The same measure, in the same setting: under `O=C(CSc1nc2cccnc2n1Cc1ccc(F)cc1)N[C@@H](CO)c1ccccc1` [Example 143, 2-[3-(4-Fluoro-benzyl)-3H-imidazo[4,5-b]pyridin-2-ylsulfanyl]-N-((R)-2-hydroxy-1-phenyl-ethyl)-acetamide] stands 9.00. `C[C@H](NC(=O)CSc1nc2cccnc2n1Cc1ccc(OC(F)(F)F)cc1)c1ccc(F)cc1` [Example 145, N—[(S)-1-(4-fluoro-phenyl)-ethyl]-2-[3-(4-trifluoromethoxy-benzyl)-3H-imidazo[4,5-b]pyridin-2-ylsulfanyl]-acetamide]: the pIC50 under setting [3] is 8.70.

For `CN(C)CCCOc1ccc(CNC(=O)CCc2nc3cccnc3n2Cc2ccc(OC(F)(F)F)cc2)cc1` [Example 10, N-[4-(3-Dimethylamino-propoxy)-benzyl]-3-[3-(4-trifluoromethoxy-benzyl)-3H-imidazo[4,5-b]pyridin-2-yl]-propionamide], the pIC50 under setting [1] was 8.70. As for `CN(C)CCCOc1ccc(CNC(=O)CCc2nc3ccncc3n2Cc2ccc(OC(F)(F)F)cc2)cc1` [Example 128, N-[4-(3-Dimethylamino-propoxy)-benzyl]-3-[3-(4-trifluoromethoxy-benzyl)-3H-imidazo[4,5-c]pyridin-2-yl]-propionamide], under setting [1], the pIC50 was 7.77. Regarding `C[C@H](OC(=O)NCc1nc2cccnc2n1Cc1ccc(F)cc1)c1ccc(F)cc1` [Example 164, [3-(4-Fluoro-benzyl)-3H-imidazo[4,5-b]pyridin-2-ylmethyl]-carbamic acid (S)-1-(4-fluoro-phenyl)-ethyl ester], the pIC50 under setting [3] is 6.02. As to `CC(C)(NC(=O)CCc1nc2ccncc2n1Cc1ccc(F)cc1)c1ccccc1` [Example 136, 3-[3-(4-Fluoro-benzyl)-3H-imidazo[4,5-c]pyridin-2-yl]-N-(1-methyl-1-phenyl-ethyl)-propionamide], the pIC50 under setting [1] was 6.94. Same read-out and setting: in the case of `O=C(CCc1nc2cccnc2n1Cc1ccc(OC(F)(F)F)cc1)N[C@H](Cc1ccccc1)C(=O)O` [Example 195, (R)-3-Phenyl-2-{3-[3-(4-trifluoromethoxy-benzyl)-3H-imidazo[4,5-b]pyridin-2-yl]-propionylamino}-propionic acid] it was 9.00. On to `C[C@H](NC(=O)COc1nc2cccnc2n1Cc1ccc(F)cc1)c1ccc(F)cc1` [Example 153, 2-[3-(4-fluoro-benzyl)-3H-imidazo[4,5-b]pyridin-2-yloxy]-N—[(S)-1-(4-fluoro-phenyl)-ethyl]-acetamide], for which, under setting [3], the pIC50 is 7.41. Turning to `C[C@H](NC(=O)NCc1nc2cccnc2n1Cc1ccc(F)c(F)c1)c1ccc(N2CCOCC2)cc1` [Example 163, 1-[3-(3,4-Difluoro-benzyl)-3H-imidazo[4,5-b]pyridin-2-ylmethyl]-3-[(S)-1-(4-morpholin-4-yl-phenyl)-ethyl]-urea], the pIC50 under setting [1] was 6.51. For the compound `C[C@H](NC(=O)CS(=O)(=O)c1nc2cccnc2n1Cc1ccc(OC(F)(F)F)cc1)c1ccc(F)cc1` [Example 150, N—[(S)-1-(4-fluoro-phenyl)-ethyl]-2-[3-(4-trifluoromethoxy-benzyl)-3H-imidazo[4,5-b]pyridine-2-sulfonyl]-acetamide], under setting [3], the pIC50 is 5.54.

Turning to `O=C(CCc1nc2cccnc2n1Cc1ccc(OC(F)F)cc1)N[C@H](Cc1ccccc1)C(=O)O` [Example 197, (R)-2-{3-[3-(4-Difluoromethoxy-benzyl)-3H-imidazo[4,5-b]pyridin-2-yl]-propionylamino}-3-phenyl-propionic acid], the pIC50 under setting [1] is 8.30. On the same count and under the same terms, under `COc1ccc(Cn2c(CCC(=O)NCc3cccc(F)c3)nc3cccnc32)cc1` [Example 117, N-(3-Fluoro-benzyl)-3-[3-(4-methoxy-benzyl)-3H-imidazo[4,5-b]pyridin-2-yl]-propionamide] stands 6.43. On to `Cc1ccc(CNC(=O)CCc2nc3cccnc3n2Cc2ccccc2)cc1` [Example 235, 3-(3-Benzyl-3H-imidazo[4,5-b]pyridin-2-yl)-N-(4-methyl-benzyl)-propionamide], for which the pIC50 under setting [2] was 6.20. As for `CC(NC(=O)CCc1nc2cccnc2n1Cc1ccc(OC(F)(F)F)cc1)C1CCN(C(=O)OC(C)(C)C)CC1` (stereo not drawn) [Example 43, 4-(1-{3-[3-(4-Trifluoromethoxy-benzyl)-3H-imidazo[4,5-b]pyridin-2-yl]-propionylamino}-ethyl)-piperidine-1-carboxylic acid tert-butyl ester], the pIC50 under setting [1] was 7.96. On to `CC(C)COc1ccc(Cn2c(CCC(=O)N[C@@H](C)c3ccc(F)cc3)nc3cccnc32)cc1` [Example 156, N—[(S)-1-(4-fluoro-phenyl)-ethyl]-3-[3-(4-isobutoxy-benzyl)-3H-imidazo[4,5-b]pyridin-2-yl]-propionamide], for which, under setting [1], the pIC50 is 6.15. On to `O=C(CCc1nc2cccnc2n1Cc1ccc(C(F)(F)F)cc1)N[C@H](Cc1ccccc1)C(=O)O` [Example 196, (R)-3-Phenyl-2-{3-[3-(4-trifluoromethyl-benzyl)-3H-imidazo[4,5-b]pyridin-2-yl]-propionylamino}-propionic acid], for which, under setting [1], the pIC50 was 8.70. Regarding `C[C@H](NC(=O)CCc1cc2cccnc2n1Cc1ccc(F)cc1)c1ccc(F)cc1` [Example 140, 3-[1-(4-Fluoro-benzyl)-1H-pyrrolo[2,3-b]pyridin-2-yl]-N-[(S)-1-(4-fluoro-phenyl)-ethyl]-propionamide], the pIC50 under setting [1] was 7.89. Still for that read-out and setting: under `Cc1cnc2c(c1)nc(CCC(=O)N[C@@H](C)c1ccc(Cl)cc1)n2Cc1ccc(OC(F)(F)F)cc1` [Example 211, N—[(S)-1-(4-chloro-phenyl)-ethyl]-3-[6-methyl-3-(4-trifluoromethoxy-benzyl)-3H-imidazo[4,5-b]pyridin-2-yl]-propionamide] stands 8.15.
